# Reference: PMC7170309, “Imidazopyridine-fused [1,3]diazepinones: modulations of positions 2 to 4 and their impacts on the anti-melanoma activity” (Journal of Enzyme Inhibition and Medicinal Chemistry, 2020)
# Tests used:
# Format in all cases: cell-based, human
# Settings in all cases: 10 µM, 48 h; for G%: growth vs untreated control
# SK-MEL-28 = assay: NCI-60 SRB assay, SK-MEL-28 (Melanoma)
# Protocol: (§1) Primary anticancer assay was performed on a panel of 60 human cancer cell lines derived from nine neoplastic diseases, in accordance with the protocol of the Drug Evaluation Branch, National Cancer Institute, Bethesda, Maryland, USA[22]. Cells were incubated with tested compounds at 10 µM for 48 h. The growth percentage was evaluated spectrophotometrically using a protein binding dye, SRB. Results for each tested compound were reported as the percent of growth of treated cells when compared to untreated control cells.
# (§2) To better compare the activity profile of these two series of compounds, compounds 5 and 8 were selected and then evaluated towards a panel of sixty cancer cell lines corresponding to nine different cancer types, i.e. leukaemia, melanoma, as well as lung, colon, central nervous system, ovarian, renal, prostate and breast cancers (NCI evaluation). Indeed, it is now well established that the growth inhibitory patterns of anticancer drugs against the NCI-60 cell line panel correlated well with their modes of action. For example, compounds that bind to tubulin have similar growth inhibition patterns regardless of which site on tubulin they bind[30]. […] Compounds were tested using the sulforhodamine B (SRB) assay that provides a direct cell density index. The amount of dye incorporated by the cells increases with the increase of the total protein biomass. Cells were incubated for 48 h with compounds at 10 µM concentration, then cell growth was evaluated spectrophotometrically and presented as the percent of untreated control cells. Values of the most sensitive cell lines were compared to those obtained with JMV5038 (Figure 4, for all data see SI).
# OVCAR-3 = assay: NCI-60 SRB assay, OVCAR-3 (Ovarian Cancer);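 for Mean G% - G%: mean growth across the NCI-60 panel minus this line's growth with positive meaning more sensitive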
# Protocol: as §1, §2
# MDA-MB-231 = assay: NCI-60 SRB assay, MDA-MB-231 (Breast Cancer);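 for Mean G% - G%: mean growth across the NCI-60 panel minus this line's growth with positive meaning more sensitive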
# Protocol: as §1, §2
# IGROV1 = assay: NCI-60 SRB assay, IGROV1 (Ovarian Cancer)
# Protocol: as §1, §2
# SN12C = assay: NCI-60 SRB assay, SN12C (Renal Cancer)
# Protocol: as §1, §2
# DU-145 = assay: NCI-60 SRB assay, DU-145 (Prostate Cancer)
# Protocol: as §1, §2
# SF-268 = assay: NCI-60 SRB assay, SF-268 (CNS Cancer)
# Protocol: as §1, §2
# OVCAR-5 = assay: NCI-60 SRB assay, OVCAR-5 (Ovarian Cancer);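 for Mean G% - G%: mean growth across the NCI-60 panel minus this line's growth with positive meaning more sensitive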
# Protocol: as §1, §2
# PC-3 = assay: NCI-60 SRB assay, PC-3 (Prostate Cancer)
# Protocol: as §1, §2
# OVCAR-4 = assay: NCI-60 SRB assay, OVCAR-4 (Ovarian Cancer);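 for Mean G% - G%: mean growth across the NCI-60 panel minus this line's growth with positive meaning more sensitive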
# Protocol: as §1, §2
# UACC-257 = assay: NCI-60 SRB assay, UACC-257 (Melanoma)
# Protocol: as §1, §2
# NCI-H522 = assay: NCI-60 SRB assay, NCI-H522 (NSCLC)
# Protocol: as §1, §2
# U251 = assay: NCI-60 SRB assay, U251 (CNS Cancer)
# Protocol: as §1, §2
# SNB-75 = assay: NCI-60 SRB assay, SNB-75 (CNS Cancer)
# Protocol: as §1, §2
# OVCAR-8 = assay: NCI-60 SRB assay, OVCAR-8 (Ovarian Cancer)
# Protocol: as §1, §2
# 786-0 = assay: NCI-60 SRB assay, 786-0 (Renal Cancer)
# Protocol: as §1, §2
# CAKI-1 = assay: NCI-60 SRB assay, CAKI-1 (Renal Cancer)
# Protocol: as §1, §2
# KM12 = assay: NCI-60 SRB assay, KM12 (Colon Cancer)
# Protocol: as §1, §2
# A498 = assay: NCI-60 SRB assay, A498 (Renal Cancer)
# Protocol: as §1, §2
# SF-539 = assay: NCI-60 SRB assay, SF-539 (CNS Cancer)
# Protocol: as §1, §2
# NCI-H460 = assay: NCI-60 SRB assay, NCI-H460 (NSCLC)
# Protocol: as §1, §2
# T-47D = assay: NCI-60 SRB assay, T-47D (Breast Cancer)
# Protocol: as §1, §2
# ACHN = assay: NCI-60 SRB assay, ACHN (Renal Cancer)
# Protocol: as §1, §2
# NCI-H23 = assay: NCI-60 SRB assay, NCI-H23 (NSCLC)
# Protocol: as §1, §2
# SF-295 = assay: NCI-60 SRB assay, SF-295 (CNS Cancer)
# Protocol: as §1, §2
# SW-620 = assay: NCI-60 SRB assay, SW-620 (Colon Cancer)
# Protocol: as §1, §2
# SK-OV-3 = assay: NCI-60 SRB assay, SK-OV-3 (Ovarian Cancer)
# Protocol: as §1, §2
# MOLT-4 = assay: NCI-60 SRB assay, MOLT-4 (Leukemia)
# Protocol: as §1, §2
# NCI/ADR-RES = assay: NCI-60 SRB assay, NCI/ADR-RES (Ovarian Cancer)
# Protocol: as §1, §2
compound,measurement,setting,value
"C[C@@H]1NC(c2csc3ccccc23)=Nc2nc3ccccn3c2C1=O [Compound 8, (4S)-4-methyl-2-benzothiophen-3-yl-3,4-dihydro-5H-pyrido[1’,2’:1,2]imidazo[4,5-d][1,3]diazepin-5-one]",Mean G% - G%,SK-MEL-28,"-23,33%"
same,G%,SK-MEL-28,"98,20%"
same,Mean G% - G%,OVCAR-3,"-5,26%"
same,G%,OVCAR-3,"80,13%"
same,Mean G% - G%,MDA-MB-231,"6,94%"
same,G%,MDA-MB-231,"67,93%"
same,Mean G% - G%,IGROV1,"14,89%"
same,G%,IGROV1,"59,98%"
same,Mean G% - G%,SN12C,"-9,24%"
same,G%,SN12C,"84,11%"
same,Mean G% - G%,DU-145,"2,24%"
same,G%,DU-145,"72,63%"
same,Mean G% - G%,SF-268,"8,82%"
same,G%,SF-268,"66,05%"
same,Mean G% - G%,OVCAR-5,"-32,82%"
same,G%,OVCAR-5,"107,69%"
same,Mean G% - G%,PC-3,"-2,69%"
same,G%,PC-3,"77,56%"
same,Mean G% - G%,OVCAR-4,"0,79%"
same,G%,OVCAR-4,"74,08%"
same,Mean G% - G%,UACC-257,"-23,68%"
same,G%,UACC-257,"98,55%"
same,Mean G% - G%,NCI-H522,"-20,45%"
same,G%,NCI-H522,"95,32%"
same,Mean G% - G%,U251,"-12,47%"
same,G%,U251,"87,34%"
same,Mean G% - G%,SNB-75,"60,36%"
same,G%,SNB-75,"14,51%"
same,Mean G% - G%,OVCAR-8,"-9,67%"
same,G%,OVCAR-8,"84,54%"
same,Mean G% - G%,786-0,"-14,72%"
same,G%,786-0,"89,59%"
same,Mean G% - G%,CAKI-1,"39,76%"
same,G%,CAKI-1,"35,11%"
same,Mean G% - G%,KM12,"4,90%"
same,G%,KM12,"69,97%"
same,Mean G% - G%,A498,"13,54%"
same,G%,A498,"61,33%"
same,Mean G% - G%,SF-539,"-1,87%"
same,G%,SF-539,"76,74%"
same,Mean G% - G%,NCI-H460,"-10,32%"
same,G%,NCI-H460,"85,19%"
same,Mean G% - G%,T-47D,"28,96%"
same,G%,T-47D,"45,91%"
same,Mean G% - G%,ACHN,"-4,72%"
same,G%,ACHN,"79,59%"
same,Mean G% - G%,NCI-H23,"3,92%"
same,G%,NCI-H23,"70,95%"
same,Mean G% - G%,SF-295,"-8,66%"
same,G%,SF-295,"83,53%"
same,Mean G% - G%,SW-620,"-0,70%"
same,G%,SW-620,"75,57%"
same,Mean G% - G%,SK-OV-3,"7,58%"
same,G%,SK-OV-3,"67,29%"
same,Mean G% - G%,MOLT-4,"-8,59%"
same,G%,MOLT-4,"83,46%"
same,Mean G% - G%,NCI/ADR-RES,"-2,84%"
same,G%,NCI/ADR-RES,"77,71%"
C[C@@H]1NC(c2ccc(Br)cc2)=Nc2nc3ccccn3c2C1=O [JMV5038],Mean G% - G%,SK-MEL-28,"-11,91%"
same,G%,SK-MEL-28,"66,15%"
same,Mean G% - G%,OVCAR-3,"36,95%"
same,G%,OVCAR-3,"17,29%"
same,Mean G% - G%,MDA-MB-231,"1,53%"
same,G%,MDA-MB-231,"52,71%"
same,Mean G% - G%,IGROV1,"11,16%"
same,G%,IGROV1,"43,08%"
same,Mean G% - G%,SN12C,"-37,53%"
same,G%,SN12C,"91,77%"
same,Mean G% - G%,DU-145,"-33,50%"
same,G%,DU-145,"87,74%"
same,Mean G% - G%,SF-268,"-29,20%"
same,G%,SF-268,"83,44%"
same,Mean G% - G%,OVCAR-5,"-28,14%"
same,G%,OVCAR-5,"82,38%"
same,Mean G% - G%,PC-3,"-8,96%"
same,G%,PC-3,"63,20%"
same,Mean G% - G%,OVCAR-4,"-23,22%"
same,G%,OVCAR-4,"77,46%"
same,Mean G% - G%,UACC-257,"-15,71%"
same,G%,UACC-257,"69,95%"
same,Mean G% - G%,NCI-H522,"19,43%"
same,G%,NCI-H522,"34,81%"
same,Mean G% - G%,U251,"0,29%"
same,G%,U251,"53,95%"
same,Mean G% - G%,SNB-75,"4,08%"
same,G%,SNB-75,"50,16%"
same,Mean G% - G%,OVCAR-8,"-18,28%"
same,G%,OVCAR-8,"72,52%"
same,Mean G% - G%,786-0,"-28,86%"
same,G%,786-0,"83,10%"
same,Mean G% - G%,CAKI-1,"10,09%"
same,G%,CAKI-1,"44,15%"
same,Mean G% - G%,KM12,"24,69%"
same,G%,KM12,"29,55%"
same,Mean G% - G%,A498,"-15,64%"
same,G%,A498,"69,88%"
same,Mean G% - G%,SF-539,"-20,40%"
same,G%,SF-539,"74,64%"
same,Mean G% - G%,NCI-H460,"21,74%"
same,G%,NCI-H460,"32,50%"
same,Mean G% - G%,T-47D,"-12,99%"
same,G%,T-47D,"67,23%"
same,Mean G% - G%,ACHN,"-14,97%"
same,G%,ACHN,"69,21%"
same,Mean G% - G%,NCI-H23,"0,57%"
same,G%,NCI-H23,"53,67%"
same,Mean G% - G%,SF-295,"13,36%"
same,G%,SF-295,"40,88%"
same,Mean G% - G%,SW-620,"16,28%"
same,G%,SW-620,"37,96%"
same,Mean G% - G%,SK-OV-3,"-17,78%"
same,G%,SK-OV-3,"72,02%"
same,Mean G% - G%,MOLT-4,"-3,27%"
same,G%,MOLT-4,"57,51%"
same,Mean G% - G%,NCI/ADR-RES,"14,87%"
same,G%,NCI/ADR-RES,"39,37%"
